# Settings: buffer; pH 7.4; 200.0 µM
row,Compound,solubility kinetic
1,CCCCCn1cc(C(=O)C(=O)N2CCOCC2)c2ccccc21,46.8 µg/mL
2,CN1c2ccc(Cl)cc2C(=O)NC1c1ccc([N+](=O)[O-])s1 (stereo unspecified),30.1 µg/mL
3,CC(=O)NCCc1nc2cc(NS(=O)(=O)c3ccccc3)ccc2n1C,> 55.9 µg/mL
4,Cc1cc(C(=O)N2CCOCC2)ccc1[N+](=O)[O-],> 37.5 µg/mL
5,COc1ccc(CC(=O)OCC(=O)NCc2ccc3c(c2)OCO3)cc1OC,> 58.1 µg/mL
6,O=C(COc1ccc2c(c1)OCO2)Nc1ccc(Cl)cn1,1.3 µg/mL
7,Cc1cc(C(=O)COc2cc(F)ccc2[N+](=O)[O-])c(C)n1C1CC1,3.3 µg/mL
8,O=c1[nH]c2cc3ccccc3cc2nc1C(F)(F)F,2.9 µg/mL
9,CSc1ncc(C(=O)Nc2cccc(C)c2C)c(C)n1,17 µg/mL
10,Cc1ccc(CN(C)c2nc(-c3cccnc3)nc3ccccc23)o1,15.5 µg/mL
11,O/N=C\c1ccccc1Oc1ccc(F)cc1,32.3 µg/mL
12,NS(=O)(=O)c1ccc(CCNC(=S)NC2CCCC2)cc1,> 49.1 µg/mL
13,O=C(Cn1cnc([N+](=O)[O-])n1)NC1CC1,> 31.7 µg/mL
14,CC(C)Cn1c(SCC(=O)Nc2ccc(Cl)cc2F)nc(O)cc1=O,> 57.9 µg/mL
15,O=C1CC2(CC(c3ccc(Cl)cc3)=NO2)C(=O)N1c1ccccc1 (stereo unspecified),48.9 µg/mL
16,Cn1c(SCC(=O)NC2CCCC2)nnc1-c1ccccn1,> 47.6 µg/mL
17,Fc1ccc(NCc2nnc3n2CCCCC3)cc1,> 39 µg/mL
18,Cc1ccc(C)c(C(=O)Nc2ccncc2)c1,> 33.9 µg/mL
19,O=C(Cc1ccccc1)Nc1nc(-c2ccc(F)c(F)c2)cs1,0.4 µg/mL
20,COC(=O)COc1ccc(NC(=O)c2ccco2)cc1,39.1 µg/mL
21,Cc1cccc(C)c1NC(=O)NC1CCc2ccccc21 (stereo unspecified),1 µg/mL
22,Cc1c(C(=O)NC2CCCCC2)oc2ccccc12,5.3 µg/mL
23,Cc1ccc(N2CC(C(=O)NCCN3CCOCC3)CC2=O)cc1 (stereo unspecified),> 49.7 µg/mL
24,O=C(c1c(F)cccc1F)N(C1CCCCC1)C1CCCCC1,1 µg/mL
25,CCCn1c(C(C)NS(=O)(=O)c2ccccc2)n[nH]c1=S (stereo unspecified),> 49 µg/mL

row,Compound,solubility kinetic
1,Cc1cc(C)cc(N2CC(C(=O)Nc3cc(C)on3)CC2=O)c1 (stereo unspecified),6.7 µg/mL
2,O=C(CC(Nc1ccc(Cl)cc1Cl)C(=O)O)c1ccccc1 (stereo unspecified),50 µg/mL
3,COc1cccc(NC(=O)C2CCN(c3cnccn3)CC2)c1,> 46.9 µg/mL
4,Cc1cccn2c(=O)cc(COC(=O)C(C)Oc3ccccc3)nc12 (stereo unspecified),46.8 µg/mL
5,CCNC(=S)N1CCCC(c2nc3ccc(C)cc3[nH]2)C1 (stereo unspecified),> 45.4 µg/mL
6,O=C(CN1C2CCCC1CC(NC(=O)c1ccccc1)C2)NC1CC1 (stereo unspecified),> 51.2 µg/mL
7,CCOC(=O)Cc1csc(NC(=O)c2cccc(Cl)c2)n1,6.9 µg/mL
8,Cc1cccn2c(=O)c(C=O)c(Nc3ccccc3)nc12,< 0.2 µg/mL
9,Cc1ccc(OCCC(=O)OCC(=O)Nc2ccccc2)cc1,16.5 µg/mL
10,O=C(CCNC(=O)c1ccco1)Nc1ccccc1,> 38.7 µg/mL
11,O=C(O)Cn1cc(C=C2C(=O)NC(=O)NC2=O)c2ccccc21,> 47 µg/mL
12,NC(=O)CCSC(=S)N1CCOCC1,> 35.1 µg/mL
13,Clc1ccc(-c2cc(-c3ccccn3)on2)c(Cl)c1,< 0.3 µg/mL
14,CC(C)Oc1ccccc1/C=N/NC(=O)C1CC1,> 36.9 µg/mL
15,Cc1ccc(S(=O)(=O)N2CCCCC2)cc1NC(=O)c1cc(F)c(F)c(F)c1F,4.7 µg/mL
16,COc1ccc(Br)cc1CN1CCSCC1,29.3 µg/mL
17,COc1cccc(C(=O)Nc2cccc3ccccc23)c1,1.5 µg/mL
18,NS(=O)(=O)c1ccc(NC(=O)CCC(=O)c2cccs2)cc1,14.7 µg/mL
19,CC(=O)c1ccc(OC(=O)CN2C(=O)c3ccccc3C2=O)cc1,> 48.5 µg/mL
20,COC(=O)c1sccc1NC(=O)Nc1cccc([N+](=O)[O-])c1,5.7 µg/mL
21,O=C1N=c2ccccc2=C1c1sc(=O)[nH]c1O,> 36.9 µg/mL
22,COc1ccc(/C=C\c2nc(O)c([N+](=O)[O-])c(=O)[nH]2)cc1O,> 45.8 µg/mL
23,COC(=O)[C@H](Cc1ccccc1)NC(=O)NCCc1ccc(F)cc1,> 51.7 µg/mL
24,COc1ccc(CN(C)CC(=O)NC(=O)NC2CCCCC2)cc1,> 50 µg/mL
25,Cc1cccc(NC(=O)C2C3CCCCC32)c1 (stereo unspecified),3 µg/mL

row,Compound,solubility kinetic
1,O=C1N/C(=N\c2ccccn2)SC1Cc1ccccc1Cl (stereo unspecified),< 0.2 µg/mL
2,CC(OC(=O)C1CCC1)C(=O)Nc1cc(Cl)cc(Cl)c1 (stereo unspecified),2.4 µg/mL
3,CC1CCC(NC(=O)Cn2c(=O)oc3ccccc32)CC1 (stereo unspecified),4.9 µg/mL
4,O=C(COC(=O)c1ccc([N+](=O)[O-])o1)NC12CC3CC(CC(C3)C1)C2,> 52.3 µg/mL
5,O=S(=O)(c1ccc(=S)[nH]c1)N1CCN(Cc2ccccc2)CC1,> 52.4 µg/mL
6,CC(=O)c1cccc(OCC(=O)N(C)CC(=O)NCc2ccco2)c1,> 51.7 µg/mL
7,Cc1onc(-c2ccccc2)c1C(=O)NCCSCc1ccco1,> 51.4 µg/mL
8,Cc1cccc(C)c1NC(=O)CNC(=O)c1cccnc1,> 42.5 µg/mL
9,CCN(C(=O)C1=COCCO1)c1nc2c(C)cccc2s1,7.5 µg/mL
10,COc1ccccc1C1(O)C(=O)Nc2ccccc21 (stereo unspecified),> 38.3 µg/mL
11,O=C(COC(=O)c1cccc(O)c1)NC(=O)Cc1ccccc1,> 47 µg/mL
12,O.S=c1nc[nH]c2nc[nH]c12,> 25.5 µg/mL
13,COc1ccc(N=C2NC(=O)/C(=C/C=C/c3ccccc3)S2)cc1,< 0.4 µg/mL
14,O=C(NC(=S)Nc1ccc(F)cc1)C1CCCCC1,1.3 µg/mL
15,CC(=O)c1ccc(S(=O)(=O)NCCC(=O)NC2CCN(Cc3ccccc3)CC2)cc1.O=C(O)C(=O)O,> 80 µg/mL
16,O=C(OC(C(=O)NCc1ccccc1)c1ccccc1)c1ccco1 (stereo unspecified),41.8 µg/mL
17,Cc1ccccc1NC(=O)CCCNC(=O)c1ccc(Cl)cc1,42.6 µg/mL
18,COc1cc(Br)c(Br)c(Br)c1N,0.9 µg/mL
19,Nc1nc2ccccc2cc1-c1cccs1,27.7 µg/mL
20,CCCCNC(=S)N1CCn2cccc2C1c1ccccc1 (stereo unspecified),5.5 µg/mL
21,O=Cc1cn(CCOc2ccccc2F)c2ccccc12,12.8 µg/mL
22,Cc1ccc(-c2noc(CCCC(=O)NC3CCCCC3)n2)cc1,7.8 µg/mL
23,O=c1cc(O)c2ccccc2n1Cc1ccccc1,31.9 µg/mL
24,COc1ccc(Nc2nc3nonc3nc2N2CCCCC2)cc1,5.3 µg/mL
25,Cc1ccccc1CCN1CCCC(CN(C)CC(C)(C)C)C1 (stereo unspecified),15 µg/mL

row,Compound,solubility kinetic
1,CCOC(OCC)c1ccc(/C=C\c2nccc(N)n2)cc1,13.7 µg/mL
2,CC1(C)Cc2cccc(OCC(=O)NCc3cccs3)c2O1,> 47.6 µg/mL
3,CC(=O)NC1(C(F)(F)F)NC(=O)N(CCc2ccccc2)C1=O (stereo unspecified),> 49.4 µg/mL
4,CC(C)(C)c1cc(CN(CCO)CCO)c(O)c(C(C)(C)C)c1,38.7 µg/mL
5,COc1ccc(Cn2c(C(F)(F)F)ccc(C(N)=O)c2=O)cc1,8.2 µg/mL
6,O=C(CSc1nccc(=O)[nH]1)NC1CCCC1,36 µg/mL
7,O=C(CN1C(=O)c2ccccc2C1=O)NC1CCCCC1,33.4 µg/mL
8,O=C(CC1S/C(=N/N=C2CCCCCC2)NC1=O)Nc1ccccc1F (stereo unspecified),> 56.5 µg/mL
9,Cc1ccc(S(=O)(=O)N2CCCCC2)cc1C(=O)N1C(C)CCCC1C (stereo unspecified),> 56.8 µg/mL
10,COc1cccc(C(NC(C)=O)c2ccc3cccnc3c2O)c1 (stereo unspecified),44.4 µg/mL
11,Cc1ccc(CNC(=O)C2CCC(=O)N2Cc2ccc(F)cc2)cc1 (stereo unspecified),50.2 µg/mL
12,O=C(NCc1cccnc1)c1ccc(Br)s1,> 44.6 µg/mL
13,Cc1ccc(-n2c(C)cc(=O)cc2C)cc1[N+](=O)[O-],> 38.7 µg/mL
14,CC(N=Cc1c(O)n(C2CC2)c(=S)[nH]c1=O)c1ccccc1 (stereo unspecified),2.6 µg/mL
15,N#CCCN(Cc1ccncc1)C(=S)NC1CC2C=CC1C2 (stereo unspecified),46.3 µg/mL
16,O=C(Nc1ccccc1Cl)Nc1cccnc1Cl,2.8 µg/mL
17,OCCCN=C1CCCc2c1[nH]c1ccc(Cl)cc21,14.4 µg/mL
18,O=C(COC(=O)c1cccc(OC(F)F)c1)NCC1CCCO1 (stereo unspecified),> 49.4 µg/mL
19,CN(Cc1ccccc1)S(=O)(=O)c1cc2c3c(c1)CCN3C(=O)CC2,3.6 µg/mL
20,Cc1cccc(C)c1NC(=O)[C@@]1(CC(=O)O)CC(/C=C/c2ccccc2)=NO1,> 56.8 µg/mL
21,COc1ccc(N2CCN(C(=O)Cc3ccc(Cl)cc3)CC2)cc1,50.1 µg/mL
22,Cc1ccc(NC(=O)N2C3CCCC2CC(NC(=O)C2CC2)C3)cc1 (stereo unspecified),9.4 µg/mL
23,CS(=O)(=O)c1ccc(C(=O)NCc2ccc(F)cc2)cc1,38.5 µg/mL
24,CCc1ccc(Nc2ncnc3nc[nH]c23)cc1,> 35.9 µg/mL
25,CNc1nc(SC)nc2ccccc12,> 30.8 µg/mL

row,Compound,solubility kinetic
1,Cc1cc(OC(C)C(=O)Nc2ccncc2)ccc1Cl (stereo unspecified),> 43.6 µg/mL
2,CC(NC(=O)C(C)(C)C)C(c1cccs1)N1CCOCC1 (stereo unspecified),> 46.6 µg/mL
3,Cn1c(CCNC(=O)c2ccco2)nc2cc([N+](=O)[O-])ccc21,43.1 µg/mL
4,Cc1c(Cl)cccc1NC(=S)NCCc1ccc(F)cc1,1.2 µg/mL
5,O=C(/C=C/c1cccs1)Nc1nccs1,0.7 µg/mL
6,CC1(C)CC(=O)c2sc(NS(=O)(=O)c3ccccc3)nc2C1,48.9 µg/mL
7,CC1CC(C)CN(C(=O)c2ccc3nc[nH]c3c2)C1 (stereo unspecified),> 38.6 µg/mL
8,CC(C)Cn1c(N)c(C=O)c(=O)[nH]c1=O,> 31.7 µg/mL
9,O=c1c(NCCc2ccc(Cl)cc2)c(-c2ccccc2)c1=O,2.6 µg/mL
10,COCc1cc(=O)[nH]c(N2CCN(c3ccccc3OC)CC2)n1,46.3 µg/mL
11,Cc1nc2ccc(NC(=S)NCc3ccccc3)cc2nc1C,> 48.4 µg/mL
12,Cc1ccccc1CS(=O)(=O)CC(O)CN1CCCC1=O (stereo unspecified),> 46.7 µg/mL
13,CC1CCCC(C)N1C(=O)COC(=O)Cc1ccc(F)cc1 (stereo unspecified),30.9 µg/mL
14,Cc1ccc(C(=O)NCC(=O)NC2CC2)cc1,33.4 µg/mL
15,O=C(Nc1nc(-c2ccccc2)ns1)c1ccncc1,2.4 µg/mL
16,Cc1c(C(C)(C)C)s/c(=N/S(=O)(=O)c2ccccc2)n1C,43.7 µg/mL
17,Cc1c(Cl)cccc1Nc1ccccc1C(=O)O,> 39.3 µg/mL
18,COc1ccccc1NC(=S)NC(=O)/C=C/c1cccs1,0.4 µg/mL
19,Cc1nc(C)c(-c2csc(Nc3ccc(O)cc3C)n2)s1,< 0.2 µg/mL
20,Cc1ccsc1C(=O)OCC(=O)NCc1ccc(Cl)cc1,4.5 µg/mL
21,CN(C)c1ccc(/C=C(/NC(=O)c2ccccc2)C(=O)N2CCCC2)cc1,47.7 µg/mL

# Reference: PubChem BioAssay AID1996
